Experimental data published in patent US20040086900A1, “Cloning of mammalian genes in microbial organisms and methods for pharmacological screening” (priority 1990, published 2004).
Entries after “also recorded” stand apart in the source; their conditions may differ. Values belong to the compound of their own block, whether it stands above or below them.

Legend:
yeast PDE2 = target: T1, yeast PDE2 (Saccharomyces cerevisiae, UniProt P06776); experiment: Phosphodiesterase activity assay, cell free extract of 10 DAB yeast expressing yeast PDE2; assay type: biochemical, S. cerevisiae
T1 construct: made in house; host or cells: S. cerevisiae strain 10 DAB (pde1- pde2-), cell free extract
Method: (§1) Yeast cells were grown at 30° C. for 36 hours in one liter cultures of synthetic media (SC-leucine). Cells were harvested and washed with buffer C ([…], 0.1 mM MgCl2, 0.1 mM EGTA, 1 mM β-mercaptoethanol), were resuspended in 30 ml buffer C with 50 μl 1M PMSF, and were disrupted with a French press. The extracts were centrifuged at 1,600 g for 10 min and the supernatants were spun at 18,000 g for 90 min (4° C.). The supernatant was assayed for phosphodiesterase activity (Sass, P., et al., Proc. Natl. Acad. Sci. USA 83:9303 (1986); Nikawa, J., et al., Mol. Cell. Biol. 7:3629 (1987)). All the reactions contained Tris-HCl (pH7.5) (100 mM), cell extract (50 μg protein/ml), 5′-nucleotidase (Sigma, 20 ng/ml) and 10 MM Mg^2+ (unless otherwise stated) and the indicated cyclic nucleotide concentrations. Assays for the cGMP hydrolysis used 1.5 μM cGMP. […] Reactions were incubated for 10 min at 30° C. and stopped with 5× stop solution (250 mM EDTA, 25 mM AMP, 100 mMcAMP).
This example illustrates the use of the genes and cells described in Example 1 to identify chemical compounds which inhibit the activity of a known enzyme, the rat DPD phosphodiesterase. To test the efficiency of known inhibitory compounds, cell free extracts were made as described in Phosphodiesterase Assays. Yeast cells deficient in endogenous phosphodiesterase (10 DAB), and expressing the rat DPD or yeast PDE2 genes from the described expression vector, were used. One liter cultures were harvested, washed in buffer C (20 mM MES/0.1 mM MgCl2/0.1 mM EGTA/1 mM 2-mercaptoethanol), resuspended in buffer C containing 1.5 mM phenylmethylsulfonyl fluoride, and disrupted in a French press at 4° C. Cell extracts were clarified at 100 g for 10 minutes and at 18000 g for 90 minutes. […] About 10^4 cpm were obtained for 10 minutes reactions and backgrounds (phosphodiesterase deficient-yeast or no extract) were about 300 cpm. The cytosolic fraction was assayed in the presence or absence of inhibitory compounds. […] The percent inhibition represents the decrease in phosphodiesterase activity relative to measurements made in the absence of inhibitors.

[1] = target: T2, rat DPD phosphodiesterase (Rattus norvegicus, UniProt P14646); experiment: Phosphodiesterase activity assay, cell free extract of 10 DAB yeast expressing rat DPD; assay type: biochemical; settings: for Inhibition (%): DPD-1 extract
T2 construct: A large open reading frame of 562 codons was found; The first ATG appears at codon 46; made in house; host or cells: S. cerevisiae strain 10 DAB (pde1- pde2-) transformed with pADPD, cell free extract
T2 sequence (P14646 220-736): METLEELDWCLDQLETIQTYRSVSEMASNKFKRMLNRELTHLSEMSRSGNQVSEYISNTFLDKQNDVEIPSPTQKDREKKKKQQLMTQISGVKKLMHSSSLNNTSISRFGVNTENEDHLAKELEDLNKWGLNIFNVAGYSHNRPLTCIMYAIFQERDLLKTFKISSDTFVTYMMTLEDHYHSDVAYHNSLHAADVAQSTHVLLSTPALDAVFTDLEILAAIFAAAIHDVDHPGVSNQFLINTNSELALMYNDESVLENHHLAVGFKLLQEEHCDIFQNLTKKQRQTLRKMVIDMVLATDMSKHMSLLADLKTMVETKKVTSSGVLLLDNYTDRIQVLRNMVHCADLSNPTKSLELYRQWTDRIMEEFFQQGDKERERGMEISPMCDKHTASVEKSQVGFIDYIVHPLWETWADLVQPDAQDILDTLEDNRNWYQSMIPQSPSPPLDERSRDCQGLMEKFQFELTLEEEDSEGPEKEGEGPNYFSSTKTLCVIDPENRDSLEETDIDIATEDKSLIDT
Method: In order to analyse the biochemical properties of the DPD gene product, crude cell extracts were prepared from one liter cultures of 10 DAB which had been transformed with either pADNS or pADPD.
as §1
This example illustrates the use of the genes and cells described in Example 1 to identify chemical compounds which inhibit the activity of a known enzyme, the rat DPD phosphodiesterase. To test the efficiency of known inhibitory compounds, cell free extracts were made as described in Phosphodiesterase Assays. Yeast cells deficient in endogenous phosphodiesterase (10 DAB), and expressing the rat DPD or yeast PDE2 genes from the described expression vector, were used. One liter cultures were harvested, washed in buffer C (20 mM MES/0.1 mM MgCl2/0.1 mM EGTA/1 mM 2-mercaptoethanol), resuspended in buffer C containing 1.5 mM phenylmethylsulfonyl fluoride, and disrupted in a French press at 4° C. Cell extracts were clarified at 100 g for 10 minutes and at 18000 g for 90 minutes. […] The cytosolic fraction was assayed in the presence or absence of inhibitory compounds. […] The percent inhibition represents the decrease in phosphodiesterase activity relative to measurements made in the absence of inhibitors.

[2] = system: 10 DAB cells expressing DPD; experiment: Heat shock survival of 10 DAB yeast cells expressing DPD; assay type: cell-based, S. cerevisiae; settings: 100 μM, 40 minutes pretreatment, heat shock 50° C. 30 minutes
Excerpt: This example illustrates the use of the genes and methods described to identify chemical compounds which inhibit the function of the encoded mammalian proteins expressed in yeast, even when the function of that protein is not known. 10DAB cells, which are phosphodiesterase deficient, are sensitive to heat shock. As already discussed, when these cells express DPD, they become resistant to heat shock. […] 10 DAB cells expressing DPD were maintained in rich medium (YPD) for three days at stationary phase. […] Control cultures were not treated with any inhibitor. These cultures were then heat shocked in glass tubes at 50° C. for 30 minutes. One microliter of each culture was plated.

T1 sequence (P06776 whole entry): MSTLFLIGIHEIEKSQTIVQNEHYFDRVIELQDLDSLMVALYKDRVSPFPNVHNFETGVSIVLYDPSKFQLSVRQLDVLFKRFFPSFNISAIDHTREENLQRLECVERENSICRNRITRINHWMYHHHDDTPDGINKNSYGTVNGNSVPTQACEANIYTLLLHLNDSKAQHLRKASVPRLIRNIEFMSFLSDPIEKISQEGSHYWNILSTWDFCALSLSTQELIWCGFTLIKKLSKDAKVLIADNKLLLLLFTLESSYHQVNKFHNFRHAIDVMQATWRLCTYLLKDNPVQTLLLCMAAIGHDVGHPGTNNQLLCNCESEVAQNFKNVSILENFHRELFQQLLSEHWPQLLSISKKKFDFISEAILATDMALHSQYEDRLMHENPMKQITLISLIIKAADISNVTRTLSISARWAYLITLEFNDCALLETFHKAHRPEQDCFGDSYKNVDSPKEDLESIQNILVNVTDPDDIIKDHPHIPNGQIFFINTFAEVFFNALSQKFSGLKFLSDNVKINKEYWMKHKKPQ

SMILES: CCCCOc1cc(CC2CNC(=O)N2)ccc1OC (stereo not drawn) [R020 1724]
Inhibition (%) (yeast PDE2; agent 100 μM): 3.0% | Inhibition (%) ([1]; agent 0.1 μM): 35. % | Inhibition (%) ([1]; agent 1.0 μM): 52. % | Inhibition (%) ([1]; agent 10.0 μM): 79. % | Inhibition (%) ([1]; agent 100.0 μM): 92. % | Inhibition of enzymatic activity of the rat DPD gene product (in words) ([1]; cell extract, summary of Example 3): most effective inhibitors of DPD activity; also recorded: inhibited

SMILES: COc1ccc(C2CNC(=O)C2)cc1OC1CCCC1 (stereo not drawn) [Rolipram]
inhibition at 100 µM (yeast PDE2; agent 100 μM): 0% | Heat shock sensitivity after treatment (inhibition of DPD function) [2]: much more sensitive to heat shock; also recorded: suppression of heat shock resistance

SMILES: Cn1c(=O)c2[nH]cnc2n(C)c1=O [Theophylline]
inhibition at 250 µM (yeast PDE2; agent 250 μM): 0%

Further lines, results first:

Inhibition (%) (yeast PDE2; agent 250 μM): 0.0% | Inhibition (%) ([1]; agent 250 μM): 87. %
SMILES: CC(C)Cn1c(=O)n(C)c(=O)c2[nH]cnc21 [IBMX]

Inhibition of cAMP phosphodiesterase activity by cGMP ([1]; 5 μM cAMP, cGMP 100 fold over substrate (up to 500 μM)): unable to inhibit
SMILES: Nc1nc2c(ncn2[C@@H]2O[C@@H]3COP(=O)(O)O[C@H]3[C@H]2O)c(=O)[nH]1 [cGMP]
